How the values were obtained:
gp41MN = assay: Competitive ELISA, E2 peptides versus gp41 mAbs on immobilized gp41MN; type: binding, HIV-1; details: increasing peptide, three independent experiments each in duplicate; for inhibition of F240 binding to gp41: mAb F240 (disulfide loop); for inhibition of F240 binding to gp41 / inhibition of T32 binding to gp41: immobilized gp41MN; for inhibition of T32 binding to gp41: mAb T32 (disulfide loop); for inhibition of gp41 binding of 246-D, D50, 5F3, 2F5, 4E10 and Chessie 8: mAbs other than F240 and T32, immobilized gp41MN
Description: Flat-bottom, 96-well Microtest ELISA plates (Sarstedt, Germany) were coated overnight at 4°C with recombinant HIV-1 gp120 (0.5 µg/ml), gp41 (0.22 µg/ml) proteins, or with streptavidin (4 µg/ml) in coating buffer (0.1 M NaHCO3, 0.1 M Na2CO3, pH 9.87). Nonspecific binding was blocked (blocking buffer: 1% BSA, 0.1% Tween-20 in phosphate buffer, pH 7.2) for 1 h at room temperature, followed by washing steps (wash buffer: 0.1% Tween in phosphate buffer, pH 7.2). Streptavidin-coated plates were then incubated with gp41 disulfide loop peptides (Loop36ox or Loop36s; 2.5 µM). All plates were then incubated with recombinant E2_340-Fc or Fc protein in serial dilutions in sample buffer (phosphate buffer, pH 7.2) for 3 hr at room temperature. To perform the competitive ELISAs, the recombinant E2_340-Fc protein was adjusted at 5 µg/ml and the monoclonal gp41 antibodies (246-D, F240, T32, D50, 2F5, 4E10, Chessie 8 [all: NIH AIDS Research and Reference Reagent Program], and 5F3 [Polymun, Austria]) at […]. After washing procedure, the plates were incubated for 1 h with polyclonal rabbit anti-human IgG peroxidase antibody (Dako, Germany) 1∶6000 in sample buffer and washed. Plates were developed with TMB peroxidase substrate solution (KPL, USA), or with OPD/H2O2 solution in the dark. Absorbances (ODs) were read at 450 or 492 nm, respectively, using a multi-channel photometer (ELISA-Reader AxSYM, Abbott Laboratory, USA).
(A) Illustration of gp41 variants (strains IIIB, MN) and peptides (N36, C34) used in ELISA as well as the binding epitopes of different monoclonal gp41 antibodies. Gp41 consists of the N-terminal fusion peptide (FP), the N- and C-heptad repeats (NHR, CHR) that are connected by the disulfide loop region (C-C loop), the membrane proximal external region (MPER), the α-helical transmembrane-spanning domain (TM), and the cytoplasmic tail (CP). […] Each sample was tested in triplicate. […] (C) Competitive binding of E2 peptides and different gp41 targeting mAbs to immobilized recombinant gp41MN. Simultaneously to mAb incubation E2 peptides were added with increasing amounts. […] The graphs show average values of three independent experiments each performed in duplicate.
Finally, we performed a direct binding assay with biotin-tagged 36mer gp41 disulfide loop peptides (residues from 588 to 623 according to HIV gp160HxB2) and GBV-C E2_340-Fc. We immobilized via streptavidin an oxidized (closed loop) or a linear variant of the disulfide loop, in which the cysteine residues were replaced with serine (Table S1) onto plates and the binding of graded concentrations of GBV-C E2_340-Fc was monitored with HRP-anti-human antibodies.

CCR5 = CCR5 surface expression, flow cytometry; type: cell-based, human; details: PBMC and TZM-bl cells; E2 peptides 25 µM, RANTES 50 nM; 6 hr; FACS; RTCN vs mock; average of two independent experiments each in triplicate
Description: PHA/IL-2-stimulated PBMC or TZM-bl cells were incubated with E2 peptides (25 µM), phorbol 12-myristate 13-acetate (PMA; 40 ng/ml), SDF-1α (1 µg/ml) or RANTES (50 nM) for 6 hr. CD4, CXCR4 and CCR5 surface expression was analyzed by using standard FACS staining protocols. Cells were washed with PBS and incubated for 30 min at 4°C with PE-labeled antibodies (CD4 clone SK3, CXCR4 clone 12G5, and CCR5 clone 2D7, BD Biosciences, Germany). Subsequently, washed cells were resuspended in PBS and analyzed with a FACSCalibur™ flow cytometer (BD Biosciences, Germany).
The non-HIV-1-inhibitory peptide P28 derived from the C-terminal part of E2 (residue 271 to 290), served as a negative control.
CD4, CXCR4 and CCR5 expression on PBMC (A) and TZM-bl cells (B) after preincubation with E2 peptides were determined by flow cytometry analysis. […] Percentages illustrate the ratio-to-cell-negative (RTCN) values that were calculated from the percentage of positive cells and the fluorescence intensity of peptide-incubated cells compared to mock-incubated cells. Columns show average values ±SD of two independent experiments each performed in triplicate. *: p<0.05; **: p<0.01 (mock- vs. inhibitor-incubated cells).

[1] = tested on: HIV-1 Env (NL4-3 gp160, X4env) on 293T cells; assay: HIV-1 gp160 (X4env) binding of FITC-labeled E2 peptides, flow cytometry; details: FITC-labeled peptides 1 µM; for binding to HIV-1 Env-expressing cells: sCD4 pretreated, 1 h 37°C, X4env- vs vector-transfected 293T cells, three independent experiments each in duplicate; for background attachment to mock- or vector-transfected cells: mock- or vector-transfected 293T cells
Description: 293T cells were transiently transfected with an HIV-1 Env expression vector, coding for the CXCR4-tropic NL4-3 gp160 precursor (X4env) for surface expression of gp120-gp41 Env trimers or empty plasmid as control. After 2 days of cultivation, cells were incubated with 1 µg sCD4 and 1 µM FITC-conjugated E2 peptides for 1 h at 37°C respectively. Subsequently, cells were washed, resuspended in PBS, and analyzed by flow cytometry using a BD™ LSR II flow cytometer (Becton Dickinson Biosciences, Germany). Flow cytometer data were collected with BD FACSDiva™ and analyzed with FCS Express V3. In parallel, gp160 expression was determined by staining with HIV-1 gp120 mAbs (2G12 and 17b) and an anti-human IgG-FITC pAb (Dako, Germany).
Previously, we have shown that the target of the HIV-1-inhibitory E2 peptides is most likely located on the HIV-1 particle, rather than on the cell. The surface of the HIV-1 particle consists of a lipid bilayer with incorporated host cell proteins and a limited number of functional envelope (Env) trimers (on average 14±7). Therefore, we tested whether the HIV-1-inhibitory E2 peptides interact with trimeric HIV-1 Env proteins expressed on the surface of transfected cells. For this purpose, 293T cells were transiently transfected with an HIV-1 Env expression vector, coding for the gp160 precursor of the CXCR4-tropic NL4-3 envelope (X4env). Binding of FITC-labeled E2 peptides was monitored by flow cytometry.
Figure 4 Recombinant E2_340-Fc protein and E2-derived peptides bind HIV-1 gp41. (A) 293T cells expressing NL4-3 envelope (X4env) or empty plasmid as control were incubated with sCD4 and FITC-conjugated E2 peptides, respectively. Peptide binding was analyzed by flow cytometry. Percentages illustrate the increase of cell binding to X4env-transfected cells. The increase is normalized to the background binding of E2 peptides to mock-transfected cells by calculating the RTCN value. […] (C) E2 peptides with increasing amounts were added to recombinant E2_340-Fc protein (at constant concentration) and then transferred to immobilized recombinant gp41MN.

Row | Compound | inhibition of F240 binding to gp41 (gp41MN) | inhibition of T32 binding to gp41 (gp41MN) | inhibition of gp41 binding of 246-D, D50, 5F3, 2F5, 4E10 and Chessie 8 (gp41MN) | CCR5 surface presentation (CCR5) | binding to HIV-1 Env-expressing cells [1] | background attachment to mock- or vector-transfected cells [1]
1 | Ac-WDRGNVTLLCDCPNGPWVWV [P4-7, 20 mer peptide presenting amino acids 37 to 56 of the GBV-C E2 protein] | inhibited in a dose-dependent manner | inhibited in a dose-dependent manner | Of the eight antibodies, only the gp41 interaction of F240 and T32 was inhibited | no relevant effect on HIV-1 receptor presentation | significant increase in the binding | background attachment
2 | CC(=O)N[C@@H](CC(C)C)C(=O)N[C@@H](CS)C(=O)N[C@@H](CC(=O)O)C(=O)N[C@@H](CS)C(=O)N1CCC[C@H]1C(=O)N[C@@H](CC(N)=O)C(=O)NCC(=O)N1CCC[C@H]1C(=O)N[C@@H](Cc1c[nH]c2ccccc12)C(=O)N[C@H](C(=O)N[C@@H](Cc1c[nH]c2ccccc12)C(=O)N[C@H](C(=O)N1CCC[C@H]1C(=O)N[C@@H](C)C(=O)N[C@@H](Cc1ccccc1)C(=O)N[C@@H](CS)C(=O)N[C@@H](CCC(N)=O)C(=O)N[C@@H](C)C(=O)N[C@H](C(=O)NCC(=O)O)C(C)C)C(C)C)C(C)C [P6-2] | inhibited in a dose-dependent manner | inhibited in a dose-dependent manner | Of the eight antibodies, only the gp41 interaction of F240 and T32 was inhibited | no relevant effect on HIV-1 receptor presentation | significant increase in the binding | background attachment
